Laboratory results taken from PMC7181660, “A novel specific PERK activator reduces toxicity and extends survival in Huntington's disease models” (Scientific Reports, 2020).
Like-named read-outs stand apart in the source and are kept apart here.

What was measured:
Assay in all cases: biochemical
Type in all cases: biochemical
[1] = target: panel of 391 kinases (Homo sapiens, UniProt Q9P2K8); details: kinase EIF2AK4, compound at 1 µM, single dose in duplicates, 1 µM ATP
[2] = target: panel of 391 kinases (Homo sapiens, UniProt Q16654); details: kinase PDK4/PDKH4, compound at 1 µM, single dose in duplicates, 1 µM ATP
[3] = target: panel of 391 kinases (Homo sapiens, UniProt P24941); details: MK-28 1 µM, ATP 1 µM; for remaining activity at 1 µM: read-out: % Enzyme Activity (relative to DMSO controls)
[4] = target: panel of 391 kinases (Homo sapiens, UniProt Q09013); details: DMPK, MK-28 1 µM, ATP 1 µM
[5] = target: panel of 391 kinases (Homo sapiens, UniProt P30530); details: AXL, MK-28 1 µM, ATP 1 µM
[6] = target: panel of 391 kinases (Homo sapiens, UniProt P49840); details: GSK3a, MK-28 1 µM, ATP 1 µM
[7] = target: panel of 391 kinases (Homo sapiens, UniProt Q14680); details: MELK, MK-28 1 µM, ATP 1 µM
[8] = target: panel of 391 kinases (Homo sapiens, UniProt O15146); details: MUSK, MK-28 1 µM, ATP 1 µM
[9] = target: panel of 391 kinases (Homo sapiens, UniProt P08922); details: ROS/ROS1, MK-28 1 µM, ATP 1 µM
[10] = target: panel of 391 kinases (Homo sapiens, UniProt Q00534); details: MK-28 1 µM, ATP 1 µM; for remaining activity at 1 µM: read-out: % Enzyme Activity (relative to DMSO controls)
[11] = target: T1, panel of 391 kinases (Homo sapiens, UniProt Q9NZJ5)
T1 sequence (Q9NZJ5 30-1116): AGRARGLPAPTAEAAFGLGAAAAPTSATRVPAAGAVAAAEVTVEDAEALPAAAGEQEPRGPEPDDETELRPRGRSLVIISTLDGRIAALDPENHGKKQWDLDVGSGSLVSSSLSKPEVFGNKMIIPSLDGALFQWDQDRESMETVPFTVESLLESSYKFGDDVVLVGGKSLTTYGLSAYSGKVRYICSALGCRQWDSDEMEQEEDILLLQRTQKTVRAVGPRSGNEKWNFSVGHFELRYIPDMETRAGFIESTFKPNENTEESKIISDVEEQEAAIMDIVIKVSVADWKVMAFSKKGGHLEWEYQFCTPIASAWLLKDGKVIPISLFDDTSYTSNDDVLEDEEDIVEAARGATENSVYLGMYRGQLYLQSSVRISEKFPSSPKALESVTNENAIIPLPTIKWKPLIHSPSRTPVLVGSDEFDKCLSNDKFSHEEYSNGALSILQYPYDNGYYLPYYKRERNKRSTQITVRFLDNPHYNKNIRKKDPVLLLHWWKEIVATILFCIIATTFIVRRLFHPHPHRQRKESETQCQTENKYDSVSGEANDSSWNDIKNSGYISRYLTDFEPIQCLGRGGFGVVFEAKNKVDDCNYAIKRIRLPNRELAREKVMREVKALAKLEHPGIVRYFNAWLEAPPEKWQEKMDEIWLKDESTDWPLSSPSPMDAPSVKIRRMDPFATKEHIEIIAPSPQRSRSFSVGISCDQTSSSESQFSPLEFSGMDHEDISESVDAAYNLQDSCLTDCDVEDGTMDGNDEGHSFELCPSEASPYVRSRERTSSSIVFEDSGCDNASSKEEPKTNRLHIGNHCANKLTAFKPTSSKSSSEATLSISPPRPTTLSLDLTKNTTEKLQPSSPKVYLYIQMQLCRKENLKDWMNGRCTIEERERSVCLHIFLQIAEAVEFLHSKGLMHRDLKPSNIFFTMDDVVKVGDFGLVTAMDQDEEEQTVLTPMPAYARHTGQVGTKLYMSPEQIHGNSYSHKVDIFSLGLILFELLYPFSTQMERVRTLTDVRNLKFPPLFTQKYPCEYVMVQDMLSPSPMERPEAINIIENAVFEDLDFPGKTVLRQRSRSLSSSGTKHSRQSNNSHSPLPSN

[12] = target: panel of 391 kinases (Homo sapiens, UniProt Q9UL54); details: TAOK2/TAO1, MK-28 1 µM, ATP 1 µM
[13] = target: panel of 391 kinases (Homo sapiens, UniProt Q15375); details: EPHA7, MK-28 1 µM, ATP 1 µM
[14] = target: panel of 391 kinases (Homo sapiens, UniProt Q12852); details: DLK/MAP3K12, MK-28 1 µM, ATP 1 µM
[15] = target: panel of 391 kinases (Homo sapiens, UniProt Q16512); details: PKN1/PRK1, MK-28 1 µM, ATP 1 µM
[16] = target: panel of 391 kinases (Homo sapiens, UniProt Q15835); details: GRK1, MK-28 1 µM, ATP 1 µM
[17] = read-out: % Enzyme Activity (relative to DMSO controls)

CN(/N=C\c1ccc(O)c(O)c1)c1nc(-c2ccccc2)cc(-c2ccccc2)n1 [MK-28]
% Enzyme Activity (relative to DMSO controls) [1]: 87.73% | remaining activity at 1 µM [1, 17]: 88.1% | % Enzyme Activity (relative to DMSO controls) [2]: 97.96% | remaining activity at 1 µM [2, 17]: 98.2% | % Enzyme Activity (relative to DMSO controls) ([3]; CDK2/Cyclin A1): 112.90% | remaining activity at 1 µM ([3]; CDK2/Cyclin A1): 118% | % Enzyme Activity (relative to DMSO controls) ([3]; CDK2/cyclin A): 102.50% | remaining activity at 1 µM ([3]; CDK2/cyclin A): 104% | % Enzyme Activity (relative to DMSO controls) ([3]; CDK2/cyclin E2): 99.65% | remaining activity at 1 µM ([3]; CDK2/cyclin E2): 100% | % Enzyme Activity (relative to DMSO controls) ([3]; CDK2/cyclin E): 95.41% | remaining activity at 1 µM ([3]; CDK2/cyclin E): 97% | % Enzyme Activity (relative to DMSO controls) ([3]; CDK2/cyclin O): 124.92% | remaining activity at 1 µM ([3]; CDK2/cyclin O): 126% | % Enzyme Activity (relative to DMSO controls) [4]: 103.01% | remaining activity at 1 µM [4, 17]: 104% | % Enzyme Activity (relative to DMSO controls) [5]: 98.72% | remaining activity at 1 µM [5, 17]: 99.5% | % Enzyme Activity (relative to DMSO controls) [6]: 82.88% | remaining activity at 1 µM [6, 17]: 83% | % Enzyme Activity (relative to DMSO controls) [7]: 84.50% | remaining activity at 1 µM [7, 17]: 85.5% | % Enzyme Activity (relative to DMSO controls) [8]: 95.79% | remaining activity at 1 µM [8, 17]: 99.1% | % Enzyme Activity (relative to DMSO controls) [9]: 99.57% | remaining activity at 1 µM [9, 17]: 100% | % Enzyme Activity (relative to DMSO controls) ([10]; CDK6/cyclin D1): 98.75% | remaining activity at 1 µM ([10]; CDK6/cyclin D1): 102% | % Enzyme Activity (relative to DMSO controls) ([10]; CDK6/cyclin D3): 86.79% | remaining activity at 1 µM ([10]; CDK6/cyclin D3): 87.6% | remaining activity at 1 µM ([11]; 1 μM, duplicate, 391-kinase panel, read-out: PERK (EIF2AK3) activity, % of the control): 181% | % Enzyme Activity (relative to DMSO controls) ([11]; kinase EIF2AK3, compound at 1 µM, single dose in duplicates, 1 µM ATP): 175.07% | remaining activity at 1 µM ([11]; kinase EIF2AK3, compound at 1 µM, single dose in duplicates, 1 µM ATP, read-out: % Enzyme Activity (relative to DMSO controls)): 188% | % Enzyme Activity (relative to DMSO controls) [12]: 107.98% | remaining activity at 1 µM [12, 17]: 111% | % Enzyme Activity (relative to DMSO controls) [13]: 96.58% | remaining activity at 1 µM [13, 17]: 98.6% | % Enzyme Activity (relative to DMSO controls) [14]: 122.20% | remaining activity at 1 µM [14, 17]: 124% | % Enzyme Activity (relative to DMSO controls) [15]: 112.74% | remaining activity at 1 µM [15, 17]: 113% | % Enzyme Activity (relative to DMSO controls) [16]: 96.61% | remaining activity at 1 µM [16, 17]: 102%
